As a reminder, the melting point is the temperature of the solid-liquid transition.

Melting point data for 25 compounds are collected here from patent US6713474B2, “Pyrrolopyrimidines as therapeutic agents” (Abbott GmbH & Co. KG, priority 1998, dated 2004).

Consider `COCCCNc1cccc(Oc2ccc(-c3cn(C4CCOC4)c4ncnc(N)c34)cc2)c1C#N` (stereo not shown) [Example 41, 2-[4-(4-Amino-7-(3-tetrahydrofuryl)-7H-pyrrolo[2,3-d]pyrimidin-5-yl)phenoxy]-6-(3-methoxypropylamino)benzonitrile], for which the melting point lay within 183 to 184 °C.
Then `CN1CCN([C@@H]2CCC[C@H](n3cc(-c4ccc(Oc5ccccc5)cc4)c4c(N)ncnc43)C2)CC1.Cl.Cl.Cl` (relative stereo), with 224.5 to 226.5 °C (dec.); and `Nc1ncnc2c1c(-c1ccc(Oc3ccccc3C=O)cc1)cn2C1CCOC1` (stereo not shown) [Example 29, 2-[4-(4-Amino-7-(3-tetrahydrofuryl)-7H-pyrrolo[2,3-d)pyrimidin-5-yl)phenoxy]benzaldehyde], with 185 to 187 °C; and `Nc1ncnc2c1c(-c1ccc(Oc3ccccc3)cc1)cn2C1CCC(O)CC1` (stereo not shown) [Example 243, 4-[4-Amino-5-(4-phenoxyphenyl)-7H-pyrrolo[2,3-d]pyrimidin-7-yl]cyclohexanol], with 199 to 200 °C.
As to `Nc1ncnc2c1c(-c1ccc(Oc3ccccc3)cc1)cn2CC(=O)NCCN1CCOCC1` [Example 153, N-(2-Morpholinoethyl)-2-[4-amino-5-(4-phenoxyphenyl)-7H-pyrrolo[2,3-d]pyrimidin-7-yl]acetamide], the melting point was 164 to 165 °C.
As to `Nc1ncnc2c1c(-c1ccc(Oc3ccccc3CN3CCOCC3)cc1)cn2C1CCOC1` (stereo not shown) [Example 31, 5-[4-(2-Morpholinomethylphenoxy)phenyl]-7-(3-tetrahydrofuryl)-7H-pyrrolo[2,3-d]pyrimidin-4-ylamine], the melting point was in the range of 169 to 171 °C.
`Nc1ncnc2c1c(-c1ccc(Oc3ccccc3)cc1)cn2CCCCCCCCN1C(=O)c2ccccc2C1=O` [Example 169, 5-(4-Phenoxyphenyl)-7-(8-phthalimidooctyl)-7H-pyrrolo[2,3-d]pyrimidin-4-ylamine] displayed a melting point of 85 to 86 °C.
Compound `CC(C)(C)OC(=O)N1CCC(n2cc(-c3ccc(Oc4ccccc4)cc3)c3c(N)ncnc32)CC1` [Example 200, tert-Butyl 4-[4-Amino-5-(4-phenoxyphenyl)-7H-pyrrolo[2,3-d]pyrimidin-7-yl]-1-piperidinecarboxylate] displayed a melting point of 168.5 to 169.5 °C.
For `CCN(CC)Cc1ccccc1Oc1ccc(-c2cn(C3CCOC3)c3ncnc(N)c23)cc1` (stereo not shown) [Example 27, 2-[4-(4-Amino-7-(3-tetrahydrofuryl)-7H-pyrrolo[2,3-d]pyrimidin-5-yl)phenoxy]-N,N-diethylbenzylamine], the melting point was in the range of 107 to 110 °C.
In turn, `N#Cc1cccnc1-n1cc(-c2ccc(Oc3ccccc3)cc2)c2c(N)ncnc21` [Example 180, 2-[4-Amino-5-(4-phenoxyphenyl)-7H-pyrrolo[2,3-d]pyrimidin-7-yl]pyridine-3-carbonitrile] showed a melting point of 242 to 242.5 °C.
In turn, `CC(C)C(=O)n1cc(-c2ccc(Oc3ccccc3)cc2)c2c(N)ncnc21` [Example 173, 7-Isobutyryl-5-(4-phenoxyphenyl)-7H-pyrrolo[2,3-d]pyrimidin-4-ylamine] displayed a melting point of 160.5 to 161 °C.
`Nc1ncnc2c1c(-c1ccc(Oc3ccccc3)cc1)cn2S(=O)(=O)C1CCCC1` [Example 168, 7-Cyclopentanesulphonyl-5-(4-phenoxyphenyl)-7H-pyrrolo[2,3-d]pyrimidin-4-ylamine] returned a melting point of 188 to 188.5 °C.
The compound `CCN1CCCC1CNC(=O)Cn1cc(-c2ccc(Oc3ccccc3)cc2)c2c(N)ncnc21` (stereo not shown) [Example 155, N-(N-Ethylpyrrolidin-2-ylmethyl)-2-[4-amino-5-(4-phenoxyphenyl)-7H-pyrrolo[2,3-d]-pyrimidin-7-yl]acetamide] displayed a melting point of 122 to 122.5 °C.
Regarding `Nc1ncnc2c1c(-c1ccc(Oc3cccc(CN4CCOCC4)c3)cc1)cn2C1CCOC1` (stereo not shown) [Example 37, 5-[4-(3-Morpholinomethylphenoxy)phenyl]-7-(3-tetrahydrofuryl)-7H-pyrrolo[2,3-d]pyrimidin-4-ylamine], the melting point lay in the range of 83 to 85 °C.
The compound `N#Cc1c(NCCc2ccncc2)cccc1Oc1ccc(-c2cn(C3CCOC3)c3ncnc(N)c23)cc1` (stereo not shown) [Example 38, 2-[4-(4-Amino-7-(3-tetrahydrofuryl)-7H-pyrrolo[2,3-d]pyrimidin-5-yl)phenoxy]-6-(2-(4-pyridyl)ethylamino)-benzonitrile] showed a melting point of 212 to 213 °C.
Compound `NCc1cccnc1-n1cc(-c2ccc(Oc3ccccc3)cc2)c2c(N)ncnc21.O=C(O)/C=C\C(=O)O.O=C(O)/C=C\C(=O)O` gave a melting point of 131 to 134 °C.
In turn, `COc1cc(-c2cn([C@H]3CC[C@H](N4CCN(C)CC4)CC3)c3ncnc(N)c23)ccc1NC(=O)OCc1ccccc1.O=C(O)/C=C\C(=O)O.O=C(O)/C=C\C(=O)O.O=C(O)/C=C\C(=O)O` displayed a melting point of 146 to 148 °C.
In the case of `Nc1ncnc2c1c(-c1ccc(Oc3ccccc3)cc1)c(Br)n2C1CCOC1` (stereo not shown) [Example 40, 4-Amino-6-bromo-5-(4-phenoxyphenyl)-7-(3-tetrahydrofuryl)-7H-pyrrolo[2,3-d]pyrimidine], the melting point was in the range of 205 to 206 °C.
Consider `Nc1ncnc2c1c(-c1ccc(Oc3ccccc3CN3CCCCC3)cc1)cn2C1CCOC1` (stereo not shown) [Example 32, 5-[4-(2-Piperidinomethylphenoxy)phenyl]-7-(3-tetrahydrofuryl)-7H-pyrrolo[2,3-d]pyrimidin-4-ylamine], for which the melting point lay in the range of 76 to 78 °C.
For the compound `CCOC(=O)Cn1cc(-c2ccc(Oc3ccccc3)cc2)c2c(N)ncnc21` [Example 150, Ethyl 2-[4-Amino-5-(4-phenoxyphenyl)-7H-pyrrolo[2,3-d]pyrimidin-7-yl]acetate], the melting point lay within 161 to 161.3 °C.
In the case of `CC(C)(C(N)=O)n1cc(-c2ccc(Oc3ccccc3)cc2)c2c(N)ncnc21` [Example 160, 2-[4-Amino-5-(4-phenoxyphenyl)pyrrolo[2,3-d]pyrimidin-7-yl]-2-methylpropionamide], the melting point fell in the range of 227 to 228 °C.
Turning to `N#Cc1c(NCCc2ccncc2)cccc1Oc1ccc(-c2cn(C3CCOCC3)c3ncnc(N)c23)cc1` [Example 51, 2-[4-(4-Amino-7-(4-tetrahydropyranyl)-7H-pyrrolo[2,3-d]pyrimidin-5-yl)phenoxy]-6-(2-(4-pyridyl)ethylamino)benzonitrile], the melting point is 120 to 123 °C.
In turn, `N#Cc1cc(F)ccc1Oc1ccc(-c2cn(C3CCOCC3)c3ncnc(N)c23)cc1` [Example 53, 2-[4-(4-Amino-7-(4-tetrahydropyranyl)-7H-pyrrolo[2,3-d]pyrimidin-5-yl)phenoxy]-5-fluorobenzonitrile] yielded a melting point of 216 to 217 °C.
`N#Cc1c(NCCCn2ccnc2)cccc1Oc1ccc(-c2cn(C3CCOC3)c3ncnc(N)c23)cc1` (stereo not shown) [Example 39, 2-[4-(4-Amino-7-(3-tetrahydrofuryl)-7H-pyrrolo[2,3-d]pyrimidin-5-yl)phenoxy]-6-(3-imidazol-1-yl)propylaminobenzonitrile] yielded a melting point of 110 °C.
As to `COCCNCc1ccccc1Oc1ccc(-c2cn(C3CCOC3)c3ncnc(N)c23)cc1` (stereo not shown) [Example 33, 5-{4-[2-(2-Methoxyethyl)aminomethylphenoxy]phenyl}-7-(3-tetrahydrofuryl)-7H-pyrrolo[2,3-d]-pyrimidin-4-ylamine], the melting point fell in the range of 66 to 68 °C.
